Key:
[1] = molecular target: T1, Recombinant STAT3 protein (STAT3(G127-I722)) (Homo sapiens, UniProt P40763); assay: STAT3 Fluorescence Polarization (FP) Assay; type: binding; settings: STAT3(G127-I722) 25 nM, probe 5-FAM-GpYLPQTV-NH2 2 nM, 45-minute incubation
T1 construct: STAT3(G127-I722)
Outline: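 STAT3(G127-I722) at 25 nM and 5-FAM-GpYLPQTV-NH2 probe at 2 nM in HEPES pH 7.4 buffer with NaCl, EDTA, Tween 20, DTT; 1% DMSO. FP read after 45 min at room temperature; IC50 by nonlinear regression of mP vs log concentration, binned A ≤100 nM to D >10 μM.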

[2] = molecular target: T2, Recombinant STAT6 protein (STAT6(W123-T658)) (Homo sapiens, UniProt P42226); assay: STAT6 Fluorescence Polarization (FP) Assay; type: binding; settings: STAT6(W123-T658) 250 nM, probe 5-FAM-ApYKPFQDLI-NH2 2 nM, 45-minute incubation
T2 construct: STAT6(W123-T658)
T2 sequence (P42226 123-658): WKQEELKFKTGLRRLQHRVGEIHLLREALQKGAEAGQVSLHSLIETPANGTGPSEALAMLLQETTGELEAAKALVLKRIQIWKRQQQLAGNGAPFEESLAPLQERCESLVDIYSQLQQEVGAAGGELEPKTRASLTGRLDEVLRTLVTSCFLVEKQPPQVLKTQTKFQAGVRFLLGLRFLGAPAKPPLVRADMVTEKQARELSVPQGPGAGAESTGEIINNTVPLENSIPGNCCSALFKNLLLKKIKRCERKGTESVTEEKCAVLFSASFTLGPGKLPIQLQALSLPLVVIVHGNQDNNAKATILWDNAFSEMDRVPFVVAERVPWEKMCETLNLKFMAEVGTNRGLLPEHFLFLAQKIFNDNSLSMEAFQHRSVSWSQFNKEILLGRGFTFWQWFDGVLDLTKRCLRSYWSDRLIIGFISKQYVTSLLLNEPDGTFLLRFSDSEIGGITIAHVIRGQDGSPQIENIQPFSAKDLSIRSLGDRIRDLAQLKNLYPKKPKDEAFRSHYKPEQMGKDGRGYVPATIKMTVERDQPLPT
Outline: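 STAT6 (W123-T658) at 250 nM mixed with 2 nM 5-FAM-ApYKPFQDLI-NH2 probe in HEPES pH 7.4 buffer with DTT and Tween 20, 1% DMSO final. Polarization read after 45 min at room temperature; IC50 by nonlinear regression of mP versus log concentration, reported in bins A–D.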

T1 sequence (P40763 127-722, species assumed): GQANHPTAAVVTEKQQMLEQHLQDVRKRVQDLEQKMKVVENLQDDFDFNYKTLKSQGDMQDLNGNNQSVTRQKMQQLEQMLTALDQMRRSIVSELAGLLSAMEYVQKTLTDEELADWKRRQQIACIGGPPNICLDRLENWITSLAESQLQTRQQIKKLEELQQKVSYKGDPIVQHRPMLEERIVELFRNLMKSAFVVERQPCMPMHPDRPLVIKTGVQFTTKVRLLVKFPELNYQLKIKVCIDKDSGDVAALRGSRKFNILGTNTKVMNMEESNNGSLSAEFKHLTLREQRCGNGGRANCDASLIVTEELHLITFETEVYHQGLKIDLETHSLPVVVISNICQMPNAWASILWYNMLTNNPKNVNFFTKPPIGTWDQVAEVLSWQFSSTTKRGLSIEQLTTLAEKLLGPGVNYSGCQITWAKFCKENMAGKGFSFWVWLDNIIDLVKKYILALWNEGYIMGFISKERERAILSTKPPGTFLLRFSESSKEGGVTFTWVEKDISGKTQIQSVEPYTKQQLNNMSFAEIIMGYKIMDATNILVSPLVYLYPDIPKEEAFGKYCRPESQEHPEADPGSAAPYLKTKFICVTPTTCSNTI

| IC50 [1] [nM] | IC50 [2] [nM] | SMILES |
| --- | --- | --- |
| 100 to 1000 | 3000 to 30000 | CC1(C(=O)N2CCOCC2)CN(C(=O)[C@@H]2CC[C@@H]3C[C@H]4C[C@H]4C[C@H](NC(=O)c4cc5cc(C(F)(F)P(=O)(O)O)ccc5s4)C(=O)N32)C1 [Compound 93, (difluoro(2-(((3S,6S,7aS,8aR,9aR)-3-(3-methyl-3-(morpholine-4-carbonyl)azetidine-1-carbonyl)-5-oxodecahydro-1H-cyclopropa[d]pyrrolo[1,2-a]azocin-6-yl)carbamoyl)benzo[b]thiophen-5-yl)methyl)phosphonic acid] |
| 1000 to 10000 | > 30000 | O=C(N[C@H]1C[C@@H]2C[C@@H]2C[C@H]2CC[C@@H](C(=O)N3CC(Oc4cnccn4)C3)N2C1=O)c1cc2cc(CP(=O)(O)O)ccc2s1 [Example 334, ((2-(((3S,6S,7aS,8aR,9aR)-5-oxo-3-(3-(pyrazin-2-yloxy)azetidine-1-carbonyl)decahydro-1H-cyclopropa[d]pyrrolo[1,2-a]azocin-6-yl)carbamoyl)benzo[b]thiophen-5-yl)methyl)phosphonic acid] |
| 100 to 1000 | 3000 to 30000 | O=C(N[C@H]1C[C@@H]2C[C@@H]2C[C@H]2CC[C@@H](C(=O)N3CC(Oc4ccccn4)C3)N2C1=O)c1cc2cc(CP(=O)(O)O)ccc2s1 [Example 351, ((2-(((3S,6S,7aS,8aR,9aR)-5-oxo-3-(3-(pyridin-2-yloxy)azetidine-1-carbonyl)decahydro-1H-cyclopropa[d]pyrrolo[1,2-a]azocin-6-yl)carbamoyl)benzo[b]thiophen-5-yl)methyl)phosphonic acid] |
| < 100 | 3000 to 30000 | O=C(N[C@H]1C[C@@H]2C[C@@H]2C[C@H]2CC[C@@H](C(=O)N3CC(c4cn[nH]c4)C3)N2C1=O)c1cc2cc(C(F)(F)P(=O)(O)O)ccc2s1 [Example 288, ((2-(((3S,6S,7aS,8aR,9aR)-3-(3-(1H-pyrazol-4-yl)azetidine-1-carbonyl)-5-oxodecahydro-1H-cyclopropa[d]pyrrolo[1,2-a]azocin-6-yl)carbamoyl)benzo[b]thiophen-5-yl)difluoromethyl)phosphonic acid] |
| < 100 | 300 to 3000 | NC(=O)N1CC[C@@H](NC(=O)[C@@H]2CC[C@@H]3C[C@H]4C[C@H]4C[C@H](NC(=O)c4cc5cc(C(F)(F)P(=O)(O)O)ccc5s4)C(=O)N32)C1 [Compound 118, ((2-(((3S,6S,7aS,8aR,9aR)-3-(((R)-1-carbamoylpyrrolidin-3-yl)carbamoyl)-5-oxodecahydro-1H-cyclopropa[d]pyrrolo[1,2-a]azocin-6-yl)carbamoyl)benzo[b]thiophen-5-yl)difluoromethyl)phosphonic acid] |
| 100 to 1000 | > 30000 | Cc1ccncc1N1C[C@H](NC(=O)[C@@H]2CC[C@@H]3C[C@H]4C[C@H]4C[C@H](NC(=O)c4cc5cc(CP(=O)(O)O)ccc5s4)C(=O)N32)[C@@H](F)C1 [Example 278, ((2-(((3S,6S,7aS,8aR,9aR)-3-(((3S,4S)-4-fluoro-1-(4-methylpyridin-3-yl)pyrrolidin-3-yl)carbamoyl)-5-oxodecahydro-1H-cyclopropa[d]pyrrolo[1,2-a]azocin-6-yl)carbamoyl)benzo[b]thiophen-5-yl)methyl)phosphonic acid] |
| < 100 | 300 to 3000 | Cc1ccncc1C1CN(C(=O)[C@@H]2CC[C@@H]3C[C@@H]4C[C@@H]4C[C@H](NC(=O)c4cc5cc(C(F)(F)P(=O)(O)O)ccc5s4)C(=O)N32)C1 [Compound 56, (difluoro(2-(((3S,6S,7aR,8aS,9aR)-3-(3-(4-methylpyridin-3-yl)azetidine-1-carbonyl)-5-oxodecahydro-1H-cyclopropa[d]pyrrolo[1,2-a]azocin-6-yl)carbamoyl)benzo[b]thiophen-5-yl)methyl)phosphonic acid] |
| 100 to 1000 | 3000 to 30000 | C[C@@]12C[C@H](NC(=O)c3cc4cc(C(F)(F)P(=O)(O)O)ccc4s3)C(=O)N3[C@H](CC[C@H]3C(=O)N3CC(c4cccnc4)C3)[C@@H]1C2 [Compound 38, (difluoro(2-(((3S,6S,7aR,8aS,9aR)-7a-methyl-5-oxo-3-(3-(pyridin-3-yl)azetidine-1-carbonyl)decahydro-1H-cyclopropa[d]pyrrolo[1,2-a]azocin-6-yl)carbamoyl)benzo[b]thiophen-5-yl)methyl)phosphonic acid] |
| < 100 | 3000 to 30000 | COC1CN(C(=O)C2CN(C(=O)[C@@H]3CC[C@@H]4C[C@H]5C[C@H]5C[C@H](NC(=O)c5cc6cc(C(F)(F)P(=O)(O)O)ccc6s5)C(=O)N43)C2)C1 [Compound 102, (difluoro(2-(((3S,6S,7aS,8aR,9aR)-3-(3-(3-methoxyazetidine-1-carbonyl)azetidine-1-carbonyl)-5-oxodecahydro-1H-cyclopropa[d]pyrrolo[1,2-a]azocin-6-yl)carbamoyl)benzo[b]thiophen-5-yl)methyl)phosphonic acid] |
| 100 to 1000 | 300 to 3000 | CC(=O)N1C[C@H](NC(=O)[C@@H]2CC[C@@H]3C[C@H]4C[C@H]4C[C@H](NC(=O)c4cc5cc(C(F)(F)P(=O)(O)O)ccc5s4)C(=O)N32)[C@@H](O)C1 [Example 9, ((2-(((3S,6S,7aS,8aR,9aR)-3-(((3S,4S)-1-acetyl-4-hydroxypyrrolidin-3-yl)carbamoyl)-5-oxodecahydro-1H-cyclopropa[d]pyrrolo[1,2-a]azocin-6-yl)carbamoyl)benzo[b]thiophen-5-yl)difluoromethyl)phosphonic acid] |
| < 100 | > 30000 | CCc1ccncc1C1CN(C(=O)[C@@H]2CC[C@@H]3C[C@@H]4C[C@@H]4C[C@H](NC(=O)c4cc5cc(CP(=O)(O)O)ccc5s4)C(=O)N32)C1 [Example 343, ((2-(((3S,6S,7aR,8aS,9aR)-3-(3-(4-ethylpyridin-3-yl)azetidine-1-carbonyl)-5-oxodecahydro-1H-cyclopropa[d]pyrrolo[1,2-a]azocin-6-yl)carbamoyl)benzo[b]thiophen-5-yl)methyl)phosphonic acid] |
| < 100 | 300 to 3000 | O=C(N[C@H]1C[C@@H]2C[C@@H]2C[C@H]2CC[C@@H](C(=O)N3CC(n4ccnc4)C3)N2C1=O)c1ccc2ccc(C(F)(F)P(=O)(O)O)cc2c1 [Compound 46, ((7-(((3S,6S,7aS,8aR,9aR)-3-(3-(1H-imidazol-1-yl)azetidine-1-carbonyl)-5-oxodecahydro-1H-cyclopropa[d]pyrrolo[1,2-a]azocin-6-yl)carbamoyl)naphthalen-2-yl)difluoromethyl)phosphonic acid] |
| < 100 | 300 to 3000 | O=C(N[C@H]1C[C@@H]2C[C@@H]2C[C@H]2CC[C@@H](C(=O)N3CC(c4cccnc4)C3)N2C1=O)c1cc2cc(C(F)(F)P(=O)(O)O)ccc2s1 [Compound 36, (difluoro(2-(((3S,6S,7aS,8aR,9aR)-5-oxo-3-(3-(pyridin-3-yl)azetidine-1-carbonyl)decahydro-1H-cyclopropa[d]pyrrolo[1,2-a]azocin-6-yl)carbamoyl)benzo[b]thiophen-5-yl)methyl)phosphonic acid] |
| < 100 | 3000 to 30000 | O=C(N[C@H]1C[C@H]2C[C@H]2C[C@H]2CC[C@@H](C(=O)N3CC(c4cccnc4)C3)N2C1=O)c1cc2cc([C@H](F)P(=O)(O)O)ccc2s1 [Compound 21, ((R)-fluoro(2-(((3S,6S,7aR,8aS,9aR)-5-oxo-3-(3-(pyridin-3-yl)azetidine-1-carbonyl)decahydro-1H-cyclopropa[d]pyrrolo[1,2-a]azocin-6-yl)carbamoyl)benzo[b]thiophen-5-yl)methyl)phosphonic acid] |
| < 100 | 3000 to 30000 | Cn1cnnc1C1CN(C(=O)[C@@H]2CC[C@@H]3C[C@H]4C[C@H]4C[C@H](NC(=O)c4cc5cc(C(F)P(=O)(O)O)ccc5s4)C(=O)N32)C1 (stereo partly drawn) [Example 304, (fluoro(2-(((3S,6S,7aS,8aR,9aR)-3-(3-(4-methyl-4H-1,2,4-triazol-3-yl)azetidine-1-carbonyl)-5-oxodecahydro-1H-cyclopropa[d]pyrrolo[1,2-a]azocin-6-yl)carbamoyl)benzo[b]thiophen-5-yl)methyl)phosphonic acid] |
| 100 to 1000 | 3000 to 30000 | O=C(N[C@H]1C[C@@H]2C[C@@H]2C[C@H]2CC[C@@H](C(=O)NC3CN([C@@H]4CCOC4)C3)N2C1=O)c1cc2cc(C(F)(F)P(=O)(O)O)ccc2s1 [Compound 53, (difluoro(2-(((3S,6S,7aS,8aR,9aR)-5-oxo-3-((1-((R)-tetrahydrofuran-3-yl)azetidin-3-yl)carbamoyl)decahydro-1H-cyclopropa[d]pyrrolo[1,2-a]azocin-6-yl)carbamoyl)benzo[b]thiophen-5-yl)methyl)phosphonic acid] |
